Laboratory results: the supplement of paper PMC10627819

Experiments:
S. pneumoniae D39V [1] = test: fitness (endpoint OD595 vs no drug) (fraction); higher = more growth
Outline: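 Cultures at OD595 0.01 were dispensed into 384-well plates in TSB, LB Lennox or CY and incubated at 37 °C. Every 30 min for 14 h, OD595 was read and corrected by the first reading. Fitness is the optical density at entry into stationary phase relative to the robust mean of no-drug control wells, capped at 1.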

B. subtilis 168 = test: Bliss interaction score (quartile over a dose matrix) (fitness difference); higher = more antagonism (negative = synergy)
Outline: (§1)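 The Bliss score takes observed fitness and subtracts the expected fitness, calculated as a product of single-drug fitness values. Those single-drug values were inferred from the combination data. Fitness is OD595 at entry into stationary phase divided by the plate's robust no-drug mean, capped at 1, and the score is summarised by quartiles across technical, biological and donor/recipient replicates.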

S. aureus DSM 20231 = test: as above
Outline: as §1

S. aureus Newman = test: as above
Outline: as §1

S. pneumoniae D39V [2] = test: as above
Outline: as §1
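Wherever Bliss interaction score (quartile over a dose matrix) is given: first quartile when negative (synergy) and third quartile when positive (antagonism).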

C[C@@H](O)[C@H]1C(=O)N2C(C(=O)O)=C(SCCNC=N)C[C@H]12 [Imipenem] + CN1C2=CC=CC=C2N=C3C1=CC=CC3=O [Pyocyanin]
fitness, S. pneumoniae D39V [1], one replicate
Conditions | first compound 0.005 µg/mL | first compound 0.01 µg/mL | first compound 0.02 µg/mL
partner 0.325 µg/mL | 0.945 | 0.947 | ≥ 1
partner 0.65 µg/mL | 0.979 | 0.959 | 0.957

fitness, S. pneumoniae D39V [1]
Conditions | first compound 0.0065 µg/mL | first compound 0.013 µg/mL | first compound 0.026 µg/mL
partner 0.325 µg/mL | 0.975 | ≥ 1 | 0.983
partner 0.65 µg/mL | 0.936 | 0.929 | 0.892
partner 1.3 µg/mL | 0.591 | 0.698 | 0.657

Conditions | Bliss interaction score
B. subtilis 168 | 0.0885
S. aureus DSM 20231 | -0.0657
S. aureus Newman | 0.0283
S. pneumoniae D39V [2] | 0.0503

C[C@@H](O)[C@H]1C(=O)N2C(C(=O)O)=C(SCCNC=N)C[C@H]12 [Imipenem] + CN(C)C(=O)C(CCN1CCC(O)(c2ccc(Cl)cc2)CC1)(c1ccccc1)c1ccccc1 [Loperamide]
fitness, S. pneumoniae D39V [1]
Conditions | first compound 0.005 µg/mL | first compound 0.0065 µg/mL | first compound 0.01 µg/mL | first compound 0.013 µg/mL | first compound 0.02 µg/mL | first compound 0.026 µg/mL
partner 17.14 µg/mL | 0.926 | – | 0.937 | – | 0.952 | –
partner 20 µg/mL | – | ≥ 1 | – | ≥ 1 | – | 0.986
partner 34.28 µg/mL | 0.907 | – | 0.947 | – | 0.942 | –
partner 40 µg/mL | – | ≥ 1 | – | ≥ 1 | – | 0.988
partner 80 µg/mL | – | 0.582 | – | 0.582 | – | 0.625

S. pneumoniae D39V [1], partner 68.57 µg/mL, one replicate
Conditions | fitness
first compound 0.005 µg/mL | 0.935
first compound 0.01 µg/mL | 0.93
first compound 0.02 µg/mL | 0.94

Conditions | Bliss interaction score
B. subtilis 168 | -0.203
S. aureus DSM 20231 | 0.0662
S. aureus Newman | 0.0304
S. pneumoniae D39V [2] | 0.0901

C[C@@H](O)[C@H]1C(=O)N2C(C(=O)O)=C(SCCNC=N)C[C@H]12 [Imipenem] + CN(C)c1cc(NC(=O)CNC(C)(C)C)c(O)c2c1C[C@H]1C[C@H]3[C@H](N(C)C)C(O)=C(C(N)=O)C(=O)[C@@]3(O)C(O)=C1C2=O [Tigecycline]
fitness, S. pneumoniae D39V [1]
Conditions | first compound 0.005 µg/mL | first compound 0.0065 µg/mL | first compound 0.01 µg/mL | first compound 0.013 µg/mL | first compound 0.02 µg/mL | first compound 0.026 µg/mL
partner 0.65 µg/mL | 0.925 | 0.992 | 0.898 | 0.999 | 0.932 | 0.863
partner 1.3 µg/mL | 0.922 | 0.979 | 0.874 | 0.893 | 0.938 | 0.946
partner 2.6 µg/mL | 0.859 | 0.994 | 0.87 | 0.943 | 0.877 | 0.956

Conditions | Bliss interaction score
B. subtilis 168 | -0.0658
S. aureus DSM 20231 | 0.0348
S. aureus Newman | -0.0535
S. pneumoniae D39V [2] | 0.0689

C[C@@H](O)[C@H]1C(=O)N2C(C(=O)O)=C(SCCNC=N)C[C@H]12 [Imipenem] + CN(N=O)C(=O)N[C@@H](C=O)[C@@H](O)[C@H](O)[C@H](O)CO [Streptozotocin]
fitness, S. pneumoniae D39V [1], one replicate
Conditions | first compound 0.005 µg/mL | first compound 0.01 µg/mL | first compound 0.02 µg/mL
partner 1.2 µg/mL | 0.986 | 0.949 | ≥ 1
partner 2.4 µg/mL | 0.983 | 0.931 | 0.97
partner 4.8 µg/mL | 0.917 | 0.86 | 0.94

fitness, S. pneumoniae D39V [1]
Conditions | first compound 0.0065 µg/mL | first compound 0.013 µg/mL | first compound 0.026 µg/mL
partner 1.2 µg/mL | 0.966 | 0.908 | 0.908
partner 2.4 µg/mL | 0.942 | 0.884 | 0.824
partner 4.8 µg/mL | 0.968 | 0.945 | 0.966

Conditions | Bliss interaction score
B. subtilis 168 | -0.138
S. aureus DSM 20231 | -0.0317
S. aureus Newman | -0.0113
S. pneumoniae D39V [2] | 0.0577

C[C@@H](O)[C@H]1C(=O)N2C(C(=O)O)=C(SCCNC=N)C[C@H]12 [Imipenem] + CN[C@@H]1[C@H](O)[C@H](NC)[C@H]2O[C@@]3(O)C(=O)C[C@@H](C)O[C@H]3O[C@@H]2[C@H]1O [Spectinomycin]
fitness, S. pneumoniae D39V [1], one replicate
Conditions | first compound 0.005 µg/mL | first compound 0.01 µg/mL | first compound 0.02 µg/mL
partner 4 µg/mL | 0.988 | 0.983 | ≥ 1
partner 8 µg/mL | 0.914 | 0.886 | 0.948

fitness, S. pneumoniae D39V [1]
Conditions | first compound 0.0065 µg/mL | first compound 0.013 µg/mL | first compound 0.026 µg/mL
partner 4 µg/mL | 0.895 | 0.878 | –
partner 8 µg/mL | 0.878 | 0.864 | 0.813
partner 16 µg/mL | 0.788 | 0.828 | 0.888

Conditions | Bliss interaction score
B. subtilis 168 | -0.0558
S. aureus DSM 20231 | -0.043
S. aureus Newman | -0.0557
S. pneumoniae D39V [2] | 0.0606

C[C@@H](O)[C@H]1C(=O)N2C(C(=O)O)=C(SCCNC=N)C[C@H]12 [Imipenem] + CN[C@@H]1[C@H](O[C@H]2[C@H](O[C@H]3[C@H](O)[C@@H](O)[C@H](N=C(N)N)[C@@H](O)[C@@H]3N=C(N)N)O[C@@H](C)[C@]2(O)C=O)O[C@@H](CO)[C@H](O)[C@H]1O [Streptomycin]
fitness, S. pneumoniae D39V [1], one replicate
Conditions | first compound 0.005 µg/mL | first compound 0.01 µg/mL | first compound 0.02 µg/mL
partner 2 µg/mL | ≥ 1 | 0.955 | 0.988
partner 16 µg/mL | 0.779 | 0.813 | 0.786

fitness, S. pneumoniae D39V [1]
Conditions | first compound 0.005 µg/mL | first compound 0.0065 µg/mL | first compound 0.01 µg/mL | first compound 0.013 µg/mL | first compound 0.02 µg/mL | first compound 0.026 µg/mL
partner 2 µg/mL | – | 0.959 | – | 0.868 | – | 0.847
partner 4 µg/mL | 0.965 | 0.923 | 0.986 | 0.903 | 0.97 | 0.886
partner 8 µg/mL | 0.837 | 0.916 | 0.863 | 0.907 | 0.875 | 0.85

Conditions | Bliss interaction score
B. subtilis 168 | 0.1
S. aureus DSM 20231 | -0.0295
S. aureus Newman | 0.076
S. pneumoniae D39V [2] | 0.0603
